From US9345742B2, “Aminostatin derivatives for the treatment of arthrosis” (MERCK PATENT GMBH, priority 2011, dated 2016)
Numbered stars: 1 amine (or outer) side, 2 acyl side, 3 side chain; on linkers, the order of the positions; unused ones are H or OH. Square brackets hold non-standard residues; d marks the D form. Peptide text beside a SMILES is read from it. * marks the point of attachment. X1 = N[C@@H](CC(=O)[*:2])[C@H](Cc1ccccc1)N[*:1]; Isovaleryl = CC(C)CC(=O)*; Abu = CC[C@H](N)C(=O)O; Boc = CC(C)(C)OC(=O)*

How the values were obtained:
[1] = biological target: cathepsin D isolated from the human liver (Homo sapiens (Human), UniProt P07339); assay: In-vitro fluorescence assay for identification of cathepsin D inhibitors; assay type: biochemical; conditions: cathepsin D 1.4 nM, pH 5.5; read-out: CatD assay IC50-
Sequence of cathepsin D isolated from the human liver (P07339 65-161): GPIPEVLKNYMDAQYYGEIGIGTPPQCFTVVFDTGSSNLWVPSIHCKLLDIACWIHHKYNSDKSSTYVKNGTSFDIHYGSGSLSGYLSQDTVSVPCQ
Sequence of cathepsin D isolated from the human liver (P07339 169-412): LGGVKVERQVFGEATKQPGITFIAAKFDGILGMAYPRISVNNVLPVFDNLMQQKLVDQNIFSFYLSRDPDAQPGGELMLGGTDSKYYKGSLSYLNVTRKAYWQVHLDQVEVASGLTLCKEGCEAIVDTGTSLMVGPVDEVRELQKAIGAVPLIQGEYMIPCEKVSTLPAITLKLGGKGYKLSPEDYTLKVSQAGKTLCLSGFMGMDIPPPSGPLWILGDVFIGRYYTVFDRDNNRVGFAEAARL
Protocol: In order to identify modulators of cathepsin D activity, a continuous enzymatic test was carried out with a synthetic peptide which carries a fluorescent group (MCA=(7-methoxycoumarin-4-yl)acetyl) which is quenched by energy transfer from a Dpn (2,4 dinitrophenyl) group on the same molecule, in Greiner 384-well nb microtitre plates. Cleavage of the peptidic substrate by cathepsin D causes an increase in the fluorescence intensity. In order to determine the efficacy of substances, the time-dependent increase in the fluorescence intensity in the presence of the substance was compared with the time-dependent increase in fluorescence in the absence of substances. The reference substance used was pepstatin A (Sigma-Aldrich). The substrate used was […](Dnp)d-R—NH2 (Enzo Life Sciences, Lörrach). The enzyme employed was cathepsin D isolated from the human liver (Sigma-Aldrich) in a final concentration of 1.4 nM. The test was carried out in 100 mM sodium acetate buffer, 1.25% (v/v) of DMSO, 0.25% (w/v) of Chaps, pH 5.5. 2 μl of each substance solution with serially diluted substance concentration were added to in each case 4 μl of cathepsin D solution and incubated at room temperature for 10 min. The reaction was started by addition of 2 μl of substrate solution (final concentration 5 μM). After carrying out a starting-point fluorescence measurement (excitation wavelength 340 nm/emission wavelength 450 nm) using an Envision multilabel reader (Perkin Elmer), the reaction was incubated at room temperature for 60 min. The amount of peptide fragment cleaved off during the reaction time was subsequently measured by determination of the increase in the fluorescence intensity at 450 nm (excitation wavelength 340 nm).

[2] = biological target: recombinant human renin (Homo sapiens (Human), UniProt P00797); assay: In-vitro fluorescence assay for identification of renin-inhibitory activity; assay type: biochemical; conditions: recombinant human renin 10 nM, pH 7.2; read-out: Renin selectivity IC50
Sequence of recombinant human renin (P00797 67-406): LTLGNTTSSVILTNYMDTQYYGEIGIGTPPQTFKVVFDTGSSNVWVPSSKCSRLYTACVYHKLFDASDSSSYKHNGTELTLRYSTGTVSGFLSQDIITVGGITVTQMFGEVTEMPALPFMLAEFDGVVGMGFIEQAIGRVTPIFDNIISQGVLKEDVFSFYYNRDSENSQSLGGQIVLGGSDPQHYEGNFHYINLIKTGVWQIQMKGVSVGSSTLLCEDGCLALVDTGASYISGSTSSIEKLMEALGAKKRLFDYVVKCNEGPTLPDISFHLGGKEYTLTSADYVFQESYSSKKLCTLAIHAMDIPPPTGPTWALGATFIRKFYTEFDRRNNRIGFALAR
Protocol: In order to identify modulators of renin activity, a continuous enzymatic test was carried out with a synthetic peptide which carries a fluorescent group Edans (=(5-(aminoethyl)aminonaphthalenesulfonate) which is quenched by energy transfer from a Dabcyl (4′-dimethylaminoazobenzene-4-carboxylate) group on the same molecule, in Greiner 384-well microtitre plates. Cleavage of the peptidic substrate by renin causes an increase in the fluorescence intensity. In order to determine the efficacy of substances, the time-dependent increase in the fluorescence intensity in the presence of the substance was compared with the time-dependent increase in fluorescence in the absence of substances. The reference substance used was renin inhibitor 2 (Z-Arg-Arg-Pro-Phe-His-Sta-Ile-His N-Boc-Lys methyl ester Z) (Sigma-Aldrich). The substrate used was renin FRET substrate I (DABCYL-g-Abu-[…]EDANS) (Anaspec, Fremont Calif.). The enzyme employed was recombinant human renin (Proteos, Kalamazoo, Mich.) in a final concentration of 10 nM. The test was carried out in 50 mM Mops buffer, 1.5% (v/v) of DMSO, 0.1% (w/v) of Igepal®, pH 7.2, 0.5% (w/v) of BSA. 2 μl of each substance solution with serially diluted substance concentration were added to in each case 4 μl of renin solution and incubated at room temperature for 15 min. The reaction was started by addition of 4 μl of substrate solution (final concentration 5 μM). After carrying out a starting-point fluorescence measurement (excitation wavelength 340 nm/emission wavelength 495 nm) using an Envision multilabel reader (Perkin Elmer), the reaction was incubated at 37° C. for 60 min. The amount of peptide fragment cleaved off during the reaction time was subsequently measured by determination of the increase in the fluorescence intensity at 495 nm (excitation wavelength 340 nm).

Compound	IC50 [1]	IC50 [2]
CC[C@H](C)[C@H](NC(=O)C[C@H](N)[C@H](Cc1ccccc1)NC(=O)[C@@H](NC(=O)Cc1cccc(NS(C)(=O)=O)c1)C(C)C)C(=O)N[C@H](C(=O)OC)C(C)C [Compound 9, Methyl (S)-2-[(2S,3S)-2-((3S,4S)-3-amino-4-{(S)-2-[2-(3-methanesulfonylamino-phenyl)-acetylamino]-3-methylbutyrylamino}-5-phenylpentanoylamino)-3-methyl-pentanoylamino]-3-methylbutyrate]	81 nM	> 30000 nM
CC(C)CCNC(=O)[C@H](C)NC(=O)C[C@H](N)[C@H](Cc1ccccc1)NC(=O)[C@@H](NC(=O)Cc1cccc(OC(F)(F)F)c1)C(C)C [Compound 35, N-[(S)-1-(3-Methylbutylcarbamoyl)-ethyl]-(3S,4S)-3-amino-4-{(S)-3-methyl-2-[2-(3-trifluoromethoxyphenyl)acetylamino]-butyrylamino}-5-phenylpentanamide]	190 nM	> 30000 nM
CCc1cccc(CC)c1NC(=O)C[C@H](N)[C@H](Cc1ccccc1)NC(=O)[C@@H](NC(=O)[C@H](CC(C)C)NC(=O)CC(C)C)C(C)C [Compound 38, N-(2,6-Diethylphenyl)-(3S,4S)-3-amino-4-{(S)-3-methyl-2-[(S)-4-methyl-2-(3-methyl-butyrylamino)pentanoylamino]butyryl-amino}-5-phenylpentanamide]	230 nM	> 30000 nM
CC[C@H](C)[C@H](NC(=O)C[C@H](N)[C@H](Cc1ccccc1)NC(=O)[C@@H](NC(=O)[C@H](CC(C)C)NC(=O)OC(C)(C)C)C(C)C)C(=O)N[C@H](C(=O)OC)C(C)C [Compound 16, Methyl (S)-2-((2S,3S)-2-{(3S,4S)-3-amino-4-[(S)-2-((S)-2-tert-butoxycarbonylamino-4-methylpentanoylamino)-3-methylbutyrylamino]-5-phenylpentanoylamino}-3-methyl-pentanoylamino)-3-methylbutyrate] (Boc-LV[X1]IV-OMe)	36 nM	
CC[C@H](NC(=O)[C@H](CC(C)C)NC(=O)CC(C)C)C(=O)N[C@@H](Cc1ccccc1)[C@@H](N)CC(=O)NCCc1ccc(Cl)c(Cl)c1 [Compound 6, N-[2-(3,4-Dichlorophenyl)ethyl]-(3S,4S)-3-amino-4-{(S)-2-[(S)-4-methyl-2-(3-methyl-butyrylamino)pentanoylamino]butyryl-amino}-5-phenylpentanamide]	1200 nM	> 30000 nM
CC[C@H](C)[C@H](NC(=O)C[C@H](N)[C@H](Cc1ccccc1)NC(=O)[C@@H](NC(=O)[C@@H](N)Cc1ccccc1)C(C)C)C(=O)N[C@H](C(=O)OC)C(C)C [Compound 21, Methyl (S)-2-((2S,3S)-2-{(3S,4S)-3-amino-4-[(S)-2-((S)-2-amino-3-phenylpropionylamino)-3-methylbutyrylamino]-5-phenyl-pentanoylamino)-3-methylpentanoyl-amino)-3-methylbutyrate] (H-FV[X1]IV-OMe)	81 nM	
CC[C@H](C)[C@H](NC(=O)C[C@H](N)[C@H](Cc1ccccc1)NC(=O)[C@@H](NC(=O)[C@H](CC(C)C)NC(=O)CC(C)C)C(C)C)C(=O)NCC1CC1 [Compound 30, N-[(1S,2S)-1-(Cyclopropylmethyl-carbamoyl)-2-methylbutyl]-(S)-3-(S)-amino-4-{(S)-3-methyl-2-[(S)-4-methyl-2-(3-methylbutyrylamino)-pentanoylamino]butyrylamino}-5-phenylpentanamide]	400 nM	> 30000 nM
CC[C@H](C)[C@H](NC(=O)C[C@H](N)[C@H](Cc1ccccc1)NC(=O)[C@@H](NC(=O)[C@H](Cc1ccccc1)NC(=O)CC(C)C)C(C)C)C(=O)N[C@H](CO)C(C)C [Compound 42, N-[(1S,2S)-1-((S)-1-Hydroxymethyl-2-methylpropylcarbamoyl)-2-methylbutyl]-(S)-3-(S)-amino-4-{(S)-3-methyl-2-[(S)-2-(3-methylbutyrylamino)-3-phenylpropionylamino]butyrylamino}-5-phenylpentanamide]	3.6 nM	
CC[C@H](C)[C@H](NC(=O)C[C@H](N)[C@H](Cc1ccccc1)NC(=O)[C@H](CC(C)C)NC(=O)CC(C)C)C(=O)N[C@H](C(=O)OC)C(C)C [Compound 3, Methyl (S)-2-((2S,3S)-2-{(3S,4S)-3-amino-4-[(S)-4-methyl-2-(3-methylbutyrylamino)pentanoylamino]-5-phenylpentanoylamino}-3-methylpentanoylamino)-3-methyl-butyrate]	5500 nM	
CC[C@H](C)[C@H](NC(=O)C[C@H](N)[C@H](Cc1ccccc1)NC(=O)[C@@H](NC(=O)[C@H](Cc1ccccc1)NC(=O)OC(C)(C)C)C(C)C)C(=O)N[C@H](C(=O)OC)C(C)C [Compound 20, Methyl (S)-2-((2S,3S)-2-{(3S,4S)-3-amino-4-[(S)-2-((S)-2-tert-butoxycarbonylamino-3-phenylpropionylamino)-3-methylbutyrylamino]-5-phenylpentanoylamino}-3-methyl-pentanoylamino)-3-methylbutyrate] (Boc-FV[X1]IV-OMe)	1 nM	
CC[C@H](C)[C@H](NC(=O)C[C@H](N)[C@H](Cc1ccccc1)NC(=O)[C@@H](NC(=O)COc1ccc(Cl)cc1Cl)C(C)C)C(=O)N[C@H](C(=O)OC)C(C)C [Compound 22, Methyl (S)-2-[(2S,3S)-2-((3S,4S)-3-amino-4-{(S)-2-[2-(2,4-dichlorophenoxy)acetylamino]-3-methylbutyrylamino)-5-phenyl-pentanoylamino)-3-methylpentanoyl-amino]-3-methylbutyrate]	27 nM	
CC[C@H](C)[C@H](NC(=O)C[C@H](N)[C@H](Cc1ccccc1)NC(=O)[C@@H](NC(=O)[C@H](CC(C)C)NC(=O)CC(C)C)C(C)C)C(=O)N[C@H](CO)C(C)C [Compound 34, N-[(1S,2S)-1-((S)-1-Hydroxymethyl-2-methylpropylcarbamoyl)-2-methylbutyl]-(S)-3-(S)-amino-4-{(S)-3-methyl-2-[(S)-4-methyl-2-(3-methylbutyrylamino)pentanoyl-amino]butyrylamino}-5-phenylpentanamide]	6.2 nM	
CC[C@H](NC(=O)[C@H](CC(C)C)NC(=O)CC(C)C)C(=O)N[C@@H](Cc1ccccc1)[C@@H](N)CC(=O)N[C@H](C(=O)N[C@H](C(=O)OC)C(C)C)[C@@H](C)CC [Compound 4, Methyl (S)-2-[(2S,3S)-2-((3S,4S)-3-amino-4-{(S)-2-[(S)-4-methyl-2-(3-methylbutyrylamino)pentanoylamino]-1-oxobutylamino}-5-phenylpentanoylamino)-3-methyl-pentanoylamino]-3-methylbutyrate] (Isovaleryl-L[Abu][X1]IV-OMe)	97 nM	
CC[C@H](C)[C@H](NC(=O)C[C@H](N)[C@H](Cc1ccccc1)NC(=O)[C@@H](NC(=O)[C@H](CC(C)C)NC(=O)CC(C)C)C(C)C)C(=O)N[C@H](C(=O)OC)[C@@H](C)CC [Compound 13, Methyl (2S,3S)-2-[(S)-2-((S)-3-(S)-amino-4-{(S)-3-methyl-2-[(S)-4-methyl-2-(3-methyl-butyrylamino)pentanoylamino]butyryl-amino}-5-phenylpentanoylamino)-3-methyl-1-(S)-oxopentylamino]-3-methylpentanoate] (Isovaleryl-LV[X1]II-OMe)	47 nM	
CC[C@H](C)[C@H](NC(=O)C[C@H](N)[C@H](Cc1ccccc1)NC(=O)[C@@H](NC(=O)[C@H](CC(C)C)NC(=O)CC(C)C)C(C)C)C(=O)N[C@H](C(=O)OC)C(C)C [Compound 10, Methyl (S)-2-[(2S,3S)-2-((3S,4S)-3-amino-4-{(S)-3-methyl-2-[(S)-4-methyl-2-(3-methyl-butyrylamino)pentanoylamino]-1-oxobutylamino}-5-phenylpentanoylamino)-3-methylpentanoylamino]-3-methyl-butyrate] (Isovaleryl-LV[X1]IV-OMe)	5.1 nM	
